This note sets out measurements from patent US20230271964A1, “5-AMINO-8-(4-PYRIDYL)-[1,2,4]TRIAZOLO[4,3-C]PYRIMIDIN-3-ONE COMPOUNDS FOR USE AGAINST CANCER” (ASTRAZENECA AB, priority 2020, published 2023).

Structures are written as SMILES. Some results are limits rather than exact numbers.

One test addresses human CB1 receptor (Homo sapiens (Human), UniProt P21554). Put plainly: CB1 receptor antagonism, agonist-induced cAMP modulation (HTRF) in transfected CHO cells. Format: cell-based. Conditions: read-out: Antag IC50. Here is the method: Receptor antagonism: Evaluation of the antagonist activity of compounds at the human CB1 receptor expressed in transfected CHO cells, determined by measuring their effects on agonist-induced cAMP modulation using the HTRF detection method.
Thereafter, the reference agonist CP 55940 and the adenylyl cyclase activator NKH 477 are added at respective final concentrations of 3 nM and 3 µM.
For basal control measurements, CP 55940 is omitted from the wells containing 3 µM AM 281.
Following 20 min incubation at 37° C., the cells are lysed and the fluorescence acceptor (D2-labeled cAMP) and fluorescence donor (anti-cAMP antibody labeled with europium cryptate) are added.
After 60 min at room temperature, the fluorescence transfer is measured at λex=337 nm and λem=620 and 665 nm using a microplate reader (Rubystar, BMG). The cAMP concentration is determined by dividing the signal measured at 665 nm by that measured at 620 nm (ratio).
The standard reference antagonist is AM 281, which is tested in each experiment at several concentrations to generate a concentration-response curve from which its IC50 value is calculated.
Background: TR-FRET usually uses a lanthanide donor and a delayed reading to cut background.

In test [1] the target is human adenosine A1 receptor (Homo sapiens (Human), UniProt P30542). Description: Adenosine receptor inhibition binding assay, [3H]DPCPX, A1 receptor membranes. Conditions: 1 nM [3H]DPCPX, 25° C., 1 h, Ki from IC50 by Cheng-Prusoff; for Ki: read-out: A1 pKi (converted). Put shortly:
(§1)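 Membranes from BacMam-transduced HEK293 cells (0.2 µg A2A; 1.4 µg A1) incubated 1 h at 25 °C with 1 nM radioligand; A2A in 50 mM Tris-HCl pH 7.4, A1 buffer adds 100 mM NaCl, 10 mM MgCl2. Nonspecific binding: 1 µM CGS 15943 (A2A) or 1 µM DPCPX (A1). Filtration, scintillation counting; IC50 converted to Ki via Cheng-Prusoff.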

Test [2] deals with human adenosine A2A receptor (Homo sapiens (Human), UniProt P29274). Description: Adenosine receptor inhibition binding assay, [3H]ZM241385, HEK293 A2A receptor membranes. Conditions: 1 nM [3H]ZM241385, HEK293-hA2A membranes, 25° C., 1 h, Ki from IC50 by Cheng-Prusoff; for Ki: read-out: A2A pKi (converted). The method in brief: as §1
Chain of human adenosine A2A receptor (P29274 whole entry): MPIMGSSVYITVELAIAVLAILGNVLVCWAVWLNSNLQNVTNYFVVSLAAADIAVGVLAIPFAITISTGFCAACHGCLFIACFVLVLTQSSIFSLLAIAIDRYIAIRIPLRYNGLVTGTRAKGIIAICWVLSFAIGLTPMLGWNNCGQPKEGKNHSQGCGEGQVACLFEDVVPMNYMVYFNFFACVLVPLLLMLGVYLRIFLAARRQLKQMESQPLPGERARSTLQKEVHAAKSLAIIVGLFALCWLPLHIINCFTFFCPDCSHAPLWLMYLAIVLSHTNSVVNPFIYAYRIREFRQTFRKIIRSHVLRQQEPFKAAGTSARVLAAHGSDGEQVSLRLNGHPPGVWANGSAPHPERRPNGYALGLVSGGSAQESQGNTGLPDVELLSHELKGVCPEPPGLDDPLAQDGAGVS

Chain of human adenosine A1 receptor (P30542 whole entry): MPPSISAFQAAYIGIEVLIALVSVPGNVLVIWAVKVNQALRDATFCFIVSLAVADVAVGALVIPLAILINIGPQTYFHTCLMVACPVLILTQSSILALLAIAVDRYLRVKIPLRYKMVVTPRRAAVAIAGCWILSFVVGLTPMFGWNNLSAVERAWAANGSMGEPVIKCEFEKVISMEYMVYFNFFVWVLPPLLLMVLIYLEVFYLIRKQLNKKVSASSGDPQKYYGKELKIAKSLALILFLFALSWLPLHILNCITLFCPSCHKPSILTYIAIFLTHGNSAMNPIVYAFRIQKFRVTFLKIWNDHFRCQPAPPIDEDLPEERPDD
Chain of human CB1 receptor (P21554 whole entry): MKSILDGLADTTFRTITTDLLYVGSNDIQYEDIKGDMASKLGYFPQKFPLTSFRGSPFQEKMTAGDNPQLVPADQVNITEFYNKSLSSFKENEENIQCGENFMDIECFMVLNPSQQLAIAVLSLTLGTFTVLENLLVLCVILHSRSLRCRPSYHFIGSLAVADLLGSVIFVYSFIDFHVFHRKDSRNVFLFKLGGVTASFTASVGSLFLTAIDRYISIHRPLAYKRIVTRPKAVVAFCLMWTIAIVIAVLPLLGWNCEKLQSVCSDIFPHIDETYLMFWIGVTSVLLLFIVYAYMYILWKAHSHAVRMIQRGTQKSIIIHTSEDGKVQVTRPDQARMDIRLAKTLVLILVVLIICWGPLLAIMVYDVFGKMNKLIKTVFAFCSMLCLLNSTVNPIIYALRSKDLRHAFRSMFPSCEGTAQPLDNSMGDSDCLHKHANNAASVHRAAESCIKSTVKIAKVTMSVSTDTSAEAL

Take `Cc1nc(Cn2nc3c(-c4cc(C)[n+]([O-])c(C)c4)c(-c4ccc(F)cc4)nc(N)n3c2=O)c(C)o1` [Example 1-35, 5-amino-2-[(2,5-dimethyloxazol-4-yl)methyl]-8-(2,6-dimethyl-1-oxido-pyridin-1-ium-4-yl)-7-(4-fluorophenyl)-[1,2,4]triazolo[4,3-c]pyrimidin-3-one]: the IC50 on human CB1 receptor was above 100 µM. In addition, the “A1 pKi” value in test [1] is listed as 7.4. Besides, the “A2A pKi” value in test [2] is given as 8.4.
Consider `COc1cc(-c2c(-c3ccccc3)nc(N)n3c(=O)n(C[C@H]4CCCO4)nc23)cc(CO)n1` [Example 2-35, 5-amino-8-[2-(hydroxymethyl)-6-methoxy-4-pyridyl]-7-phenyl-2-[[(2R)-tetrahydrofuran-2-yl]methyl]-[1,2,4]triazolo[4,3-c]pyrimidin-3-one], for which the IC50 on human CB1 receptor is above 100 µM. Also, the “A1 pKi” value in test [1] turned out to be 5.9. The “A2A pKi” value in test [2] came to 9.2.
On to `Cc1cc(-c2c(-c3ccccc3)nc(N)n3c(=O)n(Cc4nonc4C)nc23)cc(CO)n1` [Example 1-46, 5-amino-8-[2-(hydroxymethyl)-6-methyl-4-pyridyl]-2-[(4-methyl-1,2,5-oxadiazol-3-yl)methyl]-7-phenyl-[1,2,4]triazolo[4,3-c]pyrimidin-3-one], for which, on human CB1 receptor, the IC50 was above 100 µM. For the same molecule, the “A1 pKi” value in test [1] is 6.4. Besides, the “A2A pKi” value in test [2] is 9.3.
The corresponding values for `COc1cc(-c2c(-c3ccccc3)nc(N)n3c(=O)n(Cc4nccn4C)nc23)cc(C)n1` [Example 1-38, 5-amino-8-(2-methoxy-6-methyl-4-pyridyl)-2-[(1-methylimidazol-2-yl)methyl]-7-phenyl-[1,2,4]triazolo[4,3-c]pyrimidin-3-one] are above 100 µM, 7.8 and 9.5.
Consider `Cc1cc(-c2c(-c3ccc(F)cc3)nc(N)n3c(=O)n(Cc4nc(C)oc4C)nc23)cc(CO)n1` [Example 1-53, 5-amino-2-[(2,5-dimethyloxazol-4-yl)methyl]-7-(4-fluorophenyl)-8-[2-(hydroxymethyl)-6-methyl-4-pyridyl]-[1,2,4]triazolo[4,3-c]pyrimidin-3-one], for which, at human CB1 receptor, the IC50 is above 100 µM. Further, the “A1 pKi” value in test [1] was 6.5. For the same molecule, the “A2A pKi” value in test [2] is given as 9.2.
Consider `Cc1cc(-c2c(-c3ccccc3)nc(N)n3c(=O)n(Cc4ccn(C)n4)nc23)cc(C)n1` [Example 1-16, 5-amino-8-(2,6-dimethyl-4-pyridyl)-2-[(1-methylpyrazol-3-yl)methyl]-7-phenyl-[1,2,4]triazolo[4,3-c]pyrimidin-3-one], for which the IC50 on human CB1 receptor was above 100 µM. The “A1 pKi” value in test [1] was found to be 7.2. Further, the “A2A pKi” value in test [2] amounted to 9.4.
In the case of `COc1cc(-c2c(-c3ccccc3)nc(N)n3c(=O)n(Cc4nccn4C)nc23)cc(CO)n1` [Example 1-61, 5-amino-8-[2-(hydroxymethyl)-6-methoxy-4-pyridyl]-2-[(1-methylimidazol-2-yl)methyl]-7-phenyl-[1,2,4]triazolo[4,3-c]pyrimidin-3-one], the IC50 on human CB1 receptor is above 100 µM. In test [1], the “A1 pKi” value was 6.8. Moreover, the “A2A pKi” value in test [2] is given as 9.5.
In the case of `Cc1cc(-c2c(-c3ccccc3)nc(N)n3c(=O)n(C[C@H]4CCCO4)nc23)cc(CO)n1` [Example 2-29, 5-amino-8-[2-(hydroxymethyl)-6-methyl-4-pyridyl]-7-phenyl-2-[[(2R)-tetrahydrofuran-2-yl]methyl]-[1,2,4]triazolo[4,3-c]pyrimidin-3-one], on human CB1 receptor, the IC50 is above 100 µM. For the same molecule, in test [1], the “A1 pKi” value came to 6.4. Also, the “A2A pKi” value in test [2] is given as 9.3.
For `Cc1ocnc1Cn1nc2c(-c3cc(Cl)nc(CO)c3)c(-c3ccc(F)cc3)nc(N)n2c1=O` [Example 1-59, 5-amino-8-[2-chloro-6-(hydroxymethyl)-4-pyridyl]-7-(4-fluorophenyl)-2-[(5-methyloxazol-4-yl)methyl]-[1,2,4]triazolo[4,3-c]pyrimidin-3-one], in test [1], the “A1 pKi” value is given as 6.8. For the same molecule, the “A2A pKi” value in test [2] came out at 9.9.
With `[2H]c1c([2H])c([2H])c(-c2nc(N)n3c(=O)n(Cc4ncoc4C)nc3c2-c2cc(C)nc(CO)c2)c([2H])c1[2H]` [Example 1-47, 5-amino-8-[2-(hydroxymethyl)-6-methyl-4-pyridyl]-2-[(5-methyloxazol-4-yl)methyl]-7-(2,3,4,5,6-pentadeuteriophenyl)-[1,2,4]triazolo[4,3-c]pyrimidin-3-one], the Ki in test [1] is 0.158 µM; in test [2], 0.316 nM.
For the molecule `Cc1cc(-c2c(-c3ccccc3)nc(N)n3c(=O)n(Cc4ccnn4C)nc23)cc(C)n1` [Example 1-12, 5-amino-8-(2,6-dimethyl-4-pyridyl)-2-[(2-methylpyrazol-3-yl)methyl]-7-phenyl-[1,2,4]triazolo[4,3-c]pyrimidin-3-one], in test [1], the “A1 pKi” value is 7.1. Moreover, the “A2A pKi” value in test [2] is listed as 9.0.
For `Cc1cc(-c2c(-c3ccccc3)nc(N)n3c(=O)n(CCN(C)c4cn[nH]c4)nc23)cc(C)n1` [Example 3-3, 5-amino-8-(2,6-dimethyl-4-pyridyl)-2-[2-[methyl(1H-pyrazol-4-yl)amino]ethyl]-7-phenyl-[1,2,4]triazolo[4,3-c]pyrimidin-3-one], in that order: 5.7 and 7.2.
On to `Cc1cc(-c2c(-c3ccccc3)nc(N)n3c(=O)n(Cc4cnc[nH]4)nc23)cc(C)n1` [Example 1-23, 5-amino-8-(2,6-dimethyl-4-pyridyl)-2-(1H-imidazol-5-ylmethyl)-7-phenyl-[1,2,4]triazolo[4,3-c]pyrimidin-3-one], for which the “A1 pKi” value in test [1] is reported as 6.6. Further, the “A2A pKi” value in test [2] worked out at 8.3.
Consider `[2H]c1c([2H])c([2H])c(-c2nc(N)n3c(=O)n(Cc4ncoc4C)nc3c2-c2cc(CO)nc(OC)c2)c([2H])c1[2H]` [Example 1-63, 5-amino-8-[2-(hydroxymethyl)-6-methoxy-4-pyridyl]-2-[(5-methyloxazol-4-yl)methyl]-7-(2,3,4,5,6-pentadeuteriophenyl)-[1,2,4]triazolo[4,3-c]pyrimidin-3-one], for which the Ki was 0.316 µM in test [1] and 0.0794 nM in test [2].
As to `Cc1cc(-c2c(-c3ccccc3)nc(N)n3c(=O)n(C[C@H]4CC(F)(F)CN4)nc23)cc(C)n1` [Example 2-12, 5-amino-2-[[(2R)-4,4-difluoropyrrolidin-2-yl]methyl]-8-(2,6-dimethyl-4-pyridyl)-7-phenyl-[1,2,4]triazolo[4,3-c]pyrimidin-3-one], the “A1 pKi” value in test [1] was 6.4. In addition, the “A2A pKi” value in test [2] is on record as 8.1.
In the case of `Cc1cc(-c2c(-c3ccccc3)nc(N)n3c(=O)n(Cc4ncoc4C)nc23)cc(CO)n1` [Example 1-39, 5-amino-8-[2-(hydroxymethyl)-6-methyl-4-pyridyl]-2-[(5-methyloxazol-4-yl)methyl]-7-phenyl-[1,2,4]triazolo[4,3-c]pyrimidin-3-one], the “A1 pKi” value in test [1] was determined as 6.8. The “A2A pKi” value in test [2] is given as 9.5.
Regarding `Cc1cc(-c2c(-c3ccccc3)nc(N)n3c(=O)n(C(C)c4cccs4)nc23)cc(C)n1` (stereo not drawn) [Example 1-8, 5-amino-8-(2,6-dimethyl-4-pyridyl)-7-phenyl-2-[1-(2-thienyl)ethyl]-[1,2,4]triazolo[4,3-c]pyrimidin-3-one], the “A1 pKi” value in test [1] came out at 6.7. Also, in test [2], the “A2A pKi” value worked out at 7.8.

As a reminder, the IC50 is the concentration needed to halve the response being measured.
